Experimental data taken from PubChem BioAssay (NCI).
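Tested at 5 concentrations; 48 h exposure; 96-well plates; endpoints linearly interpolated, else capped at highest concentration. GI50 is the concentration that inhibits growth by half. Definition used: TGI = concentration required for complete inhibition of growth.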

Experiments:
Experiment in all cases: growth of human tumour cells (NCI), 48 h
SK-MEL-28 melanoma = tested on: SK-MEL-28 melanoma
IGROV1 ovarian = tested on: IGROV1 ovarian
SK-MEL-2 melanoma = tested on: SK-MEL-2 melanoma
HCT-116 colon = tested on: HCT-116 colon
HCC-2998 colon = tested on: HCC-2998 colon
SR leukemia = tested on: SR leukemia
HS 578T breast = tested on: HS 578T breast
OVCAR-3 ovarian = tested on: OVCAR-3 ovarian
SN12C renal = tested on: SN12C renal
SNB-75 CNS = tested on: SNB-75 CNS
SF-295 CNS = tested on: SF-295 CNS
UACC-62 melanoma = tested on: UACC-62 melanoma
NCI-H522 lung = tested on: NCI-H522 lung
SK-MEL-5 melanoma = tested on: SK-MEL-5 melanoma
COLO 205 colon = tested on: COLO 205 colon
MALME-3M melanoma = tested on: MALME-3M melanoma
CCRF-CEM leukemia = tested on: CCRF-CEM leukemia
HL-60(TB) leukemia = tested on: HL-60(TB) leukemia
HOP-92 NSCLC = tested on: HOP-92 NSCLC
HOP-62 NSCLC = tested on: HOP-62 NSCLC
NCI-H460 lung = tested on: NCI-H460 lung
786-0 renal = tested on: 786-0 renal
MCF7 breast = tested on: MCF7 breast
NCI-H23 lung = tested on: NCI-H23 lung
MOLT-4 leukemia = tested on: MOLT-4 leukemia
CAKI-1 renal = tested on: CAKI-1 renal
MDA-MB-435 = tested on: MDA-MB-435
SF-268 CNS = tested on: SF-268 CNS
LOX IMVI melanoma = tested on: LOX IMVI melanoma
SW-620 colon = tested on: SW-620 colon
MDA-MB-231 breast = tested on: MDA-MB-231 breast
KM12 colon = tested on: KM12 colon
RXF 393 renal = tested on: RXF 393 renal
SK-OV-3 ovarian = tested on: SK-OV-3 ovarian
A549 NSCLC = tested on: A549 NSCLC
OVCAR-5 ovarian = tested on: OVCAR-5 ovarian
SNB-19 CNS = tested on: SNB-19 CNS
A498 renal = tested on: A498 renal
OVCAR-4 ovarian = tested on: OVCAR-4 ovarian
RPMI-8226 leukemia = tested on: RPMI-8226 leukemia
NCI-H226 lung = tested on: NCI-H226 lung
U251 CNS = tested on: U251 CNS
HCT-15 colon = tested on: HCT-15 colon
UO-31 renal = tested on: UO-31 renal
UACC-257 melanoma = tested on: UACC-257 melanoma
SF-539 CNS = tested on: SF-539 CNS
HT29 colon = tested on: HT29 colon
EKVX NSCLC = tested on: EKVX NSCLC
ACHN renal = tested on: ACHN renal
DU-145 prostate = tested on: DU-145 prostate
M14 melanoma = tested on: M14 melanoma
NCI/ADR-RES ovarian = tested on: NCI/ADR-RES ovarian
OVCAR-8 ovarian = tested on: OVCAR-8 ovarian
PC-3 prostate = tested on: PC-3 prostate
K-562 leukemia = tested on: K-562 leukemia
T-47D breast = tested on: T-47D breast

c1ccc(Oc2c3ccccc3nc3ccccc23)cc1
GI50 (SK-MEL-28 melanoma): 11.3 µM
TGI (SK-MEL-28 melanoma): 24.1 µM
GI50 (IGROV1 ovarian): 4.31 µM
TGI (IGROV1 ovarian): 15.8 µM
GI50 (SK-MEL-2 melanoma): 3.95 µM
TGI (SK-MEL-2 melanoma): 17.6 µM
GI50 (HCT-116 colon): 0.714 µM
TGI (HCT-116 colon): 3.13 µM
GI50 (HCC-2998 colon): 2.87 µM
TGI (HCC-2998 colon): 7.97 µM
GI50 (SR leukemia): 2.97 µM
TGI (SR leukemia): 54.3 µM
GI50 (HS 578T breast): 6.99 µM
TGI (HS 578T breast): > 100 µM
GI50 (OVCAR-3 ovarian): 3.41 µM
TGI (OVCAR-3 ovarian): 13.2 µM
GI50 (SN12C renal): 5.27 µM
TGI (SN12C renal): 16.8 µM
GI50 (SNB-75 CNS): 3.49 µM
TGI (SNB-75 CNS): 14.2 µM
GI50 (SF-295 CNS): 5.03 µM
TGI (SF-295 CNS): > 100 µM
GI50 (UACC-62 melanoma): 4.97 µM
TGI (UACC-62 melanoma): 16.9 µM
GI50 (NCI-H522 lung): 2.22 µM
TGI (NCI-H522 lung): 10.7 µM
GI50 (SK-MEL-5 melanoma): 3.5 µM
TGI (SK-MEL-5 melanoma): 11.7 µM
GI50 (COLO 205 colon): 2.61 µM
TGI (COLO 205 colon): 6.07 µM
GI50 (MALME-3M melanoma): 2.15 µM
TGI (MALME-3M melanoma): 8.71 µM
GI50 (CCRF-CEM leukemia): 1.12 µM
TGI (CCRF-CEM leukemia): > 100 µM
GI50 (HL-60(TB) leukemia): 0.541 µM
TGI (HL-60(TB) leukemia): 5.79 µM
GI50 (HOP-92 NSCLC): 2.24 µM
TGI (HOP-92 NSCLC): 8.63 µM
GI50 (HOP-62 NSCLC): 3.53 µM
TGI (HOP-62 NSCLC): 12.3 µM
GI50 (NCI-H460 lung): 3.29 µM
TGI (NCI-H460 lung): 10.3 µM
GI50 (786-0 renal): 3.08 µM
TGI (786-0 renal): 10.7 µM
GI50 (MCF7 breast): 2.48 µM
TGI (MCF7 breast): 17.5 µM
GI50 (NCI-H23 lung): 3.71 µM
TGI (NCI-H23 lung): 14.3 µM
GI50 (MOLT-4 leukemia): 0.82 µM
TGI (MOLT-4 leukemia): 48 µM
GI50 (CAKI-1 renal): 6.07 µM
TGI (CAKI-1 renal): 19.5 µM
GI50 (MDA-MB-435): 1.77 µM
TGI (MDA-MB-435): 6.16 µM
GI50 (SF-268 CNS): 5.28 µM
TGI (SF-268 CNS): 17.3 µM
GI50 (LOX IMVI melanoma): 1.73 µM
TGI (LOX IMVI melanoma): 11.8 µM
GI50 (SW-620 colon): 1.64 µM
TGI (SW-620 colon): 17.5 µM
GI50 (MDA-MB-231 breast): 3.08 µM
TGI (MDA-MB-231 breast): 9.82 µM
GI50 (KM12 colon): 3.64 µM
TGI (KM12 colon): 11 µM
GI50 (RXF 393 renal): 3.6 µM
TGI (RXF 393 renal): 15.1 µM
GI50 (SK-OV-3 ovarian): 4.34 µM
TGI (SK-OV-3 ovarian): 21 µM
GI50 (A549 NSCLC): 4.62 µM
TGI (A549 NSCLC): 27 µM
GI50 (OVCAR-5 ovarian): 3.7 µM
TGI (OVCAR-5 ovarian): 13.7 µM
GI50 (SNB-19 CNS): 5.35 µM
TGI (SNB-19 CNS): 18 µM
GI50 (A498 renal): 4.49 µM
TGI (A498 renal): 25.8 µM
GI50 (OVCAR-4 ovarian): 4.33 µM
TGI (OVCAR-4 ovarian): 21.2 µM
GI50 (RPMI-8226 leukemia): 4.75 µM
TGI (RPMI-8226 leukemia): 24.6 µM
GI50 (NCI-H226 lung): 6.89 µM
TGI (NCI-H226 lung): 27.1 µM
GI50 (U251 CNS): 3.26 µM
TGI (U251 CNS): 11 µM
GI50 (HCT-15 colon): 3.06 µM
TGI (HCT-15 colon): 12.3 µM
GI50 (UO-31 renal): 5.64 µM
TGI (UO-31 renal): 19.1 µM
GI50 (UACC-257 melanoma): 9.59 µM
TGI (UACC-257 melanoma): 26.3 µM
GI50 (SF-539 CNS): 2 µM
TGI (SF-539 CNS): 5.22 µM
GI50 (HT29 colon): 0.48 µM
TGI (HT29 colon): 2.83 µM
GI50 (EKVX NSCLC): 4.43 µM
TGI (EKVX NSCLC): 20.9 µM
GI50 (ACHN renal): 3.61 µM
TGI (ACHN renal): 13.7 µM
GI50 (DU-145 prostate): 3.72 µM
TGI (DU-145 prostate): 11.2 µM
GI50 (M14 melanoma): 3.4 µM
TGI (M14 melanoma): 10.7 µM
GI50 (NCI/ADR-RES ovarian): 7.32 µM
TGI (NCI/ADR-RES ovarian): 27 µM
GI50 (OVCAR-8 ovarian): 6.22 µM
TGI (OVCAR-8 ovarian): 24.8 µM
GI50 (PC-3 prostate): 4.91 µM
TGI (PC-3 prostate): 15.8 µM
GI50 (K-562 leukemia): 0.454 µM
TGI (K-562 leukemia): 24.7 µM
GI50 (T-47D breast): 2.81 µM
TGI (T-47D breast): 10.9 µM
